Test results: article PMC4806471, “Oral proteasome inhibitor with strong preclinical efficacy in myeloma models” (BMC Cancer, 2016)

What was measured:
[1] = test system: proteasome CT-L activity; test: Binding kinetics: CT-L activity in RPMI8226 cells at different time points after 1-h pulse treatment; format: cell-based, human; settings: CT-L activity in RPMI8226 cells after 1-h pulse treatment
[2] = target: T1, 20S proteasome T-L, β2 (Homo sapiens, UniProt Q99436); test: In vitro 20S proteasome inhibition in RPMI8226 cell lysate, Z-Ala-Arg-Arg-AMC substrate; format: biochemical; settings: RPMI8226 cellular lysates, 1 h at 37 °C
T1 sequence (Q99436 44-277): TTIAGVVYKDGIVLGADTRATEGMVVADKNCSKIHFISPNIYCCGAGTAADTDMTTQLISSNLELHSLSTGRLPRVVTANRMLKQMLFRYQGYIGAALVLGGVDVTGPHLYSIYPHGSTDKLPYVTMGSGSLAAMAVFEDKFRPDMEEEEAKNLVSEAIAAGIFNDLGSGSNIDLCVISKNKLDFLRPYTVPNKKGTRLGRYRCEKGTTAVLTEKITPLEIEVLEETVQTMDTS
Method: (§1) Pomalidomide was purchased from Tokyo Chemical Industry.
(§2) RPMI8226 cell lysate was used for the in vitro proteasome inhibition assay. Cells were washed with PBS and resuspended in 20 mM Tris–HCl, pH 7.5. Then, cells were lysed on ice by dounce homogenization and the supernatants were collected by centrifugation. The assay was conducted in 96-well plates by incubating 2 μg of lysates with serial dilutions of a test compound and 20 μM of substrate at 37 °C for 1 h. After incubation, production of hydrolyzed AMC groups was measured using a FlexStation II Fluorometer (Molecular Devices) or using a Spectra MAX Gemini Fluorometer (Molecular Devices) with an excitation filter of 380 nm and an emission filter of 460 nm.

[3] = target: T2, 20S proteasome C-L, β1 (Homo sapiens, UniProt P28072+Q99436); test: In vitro 20S proteasome inhibition in RPMI8226 cell lysate, Z-Leu-Leu-Glu-AMC substrate; format: biochemical; settings: RPMI8226 cellular lysates, 1 h at 37 °C
T2 construct: endogenous in cells; host or cells: RPMI8226 (human multiple myeloma)
Method: as §1, §2

[4] = test system: CD138+ cells from bone marrow of MM patients; test: Viability of primary myeloma cells from MM patients (CellTiter-Glo); format: cell-based, human; settings: patient 14 sample (bortezomib- and ixazomib-refractory), 48 h, % over DMSO control
Method: (§3) Primary MM cells were retrieved from bone marrow of patients and were enriched by Ficoll density centrifugation to a purity of >90 %, as necessary. Purity was assessed by cytomorphology on stained samples. CD138^+ cells were collected using magnetic beads (Miltenyi Biotec) and plated at a density of 8 × 10^4 cells per well onto 96-well plates in RPMI-1640 (WELGENE) containing 10 % FBS (WELGENE), 1 % penicillin-streptomycin-amphotericin B (Gibco), and 2 mM L-glutamine. Cells were then treated with a serial dilution of compound in medium containing a final concentration of 0.2 % DMSO. Cultures were incubated for 48 h and cells were then assayed for viability using the CellTiter-Glo Luminescent Cell Viability Assay kit (Promega).

[5] = Cytotoxicity in normal PBMC from healthy donors (CellTiter-Glo); format: cell-based; settings: human, 10,000 nM, read-out: Viability of normal PBMC at highest concentration tested
Method: as §3
Peripheral blood mononuclear cells (PBMCs) isolated from the heparinized blood samples of normal healthy donors were also plated and processed as described above.

[6] = test system: MM.1S xenografts; test: Anti-tumor activity of repeat oral dosing in MM.1S xenograft model; format: in vivo, mice; settings: 5 mg/kg oral twice a week
Method: (§4) In vivo efficacy studies were performed in female BALB/c nude mice (8 weeks old) purchased from ORIENT Bio or female NOD.SCID mice (11–13 weeks old) purchased from HFK Bioscience. The animals were housed and maintained in a controlled environment including a 12 h light and 12 h dark cycle with automatic timers and received food and water ad libitum. All experiments were done under protocols approved by the Institutional Animal Care and Use Committee (IACUC). Moribund animals were sacrificed when necessary and animal carcasses were disposed of according to IACUC guidelines.
1 × 10^7 MM.1S tumor cells in 0.1 ml of Dulbecco’s Phosphate-Buffered Saline (1:1 matrigel) were implanted subcutaneously into the right flank of female athymic nude mice. Tumor growth was monitored with calipers and mice were divided into homogeneous cohorts according to their initial tumor volume. […] The compounds were formulated in 0.5 % methyl cellulose and administered at the indicated doses and regimens by oral gavage at a dose volume of 10 mL/kg. For the RPMI8226 model, a total of 1 × 10^7 cells in 0.2 ml of PBS (1:1 matrigel) were implanted subcutaneously into the hind flank of female NOD.SCID mice. Whole blood was collected by cardiac puncture into tubes containing sodium heparin and cells were harvested by centrifugation. Blood cell pellets and tumor tissues were homogenized in lysis buffer (50 mM Tris–HCl, pH 8.0, 5 mM EDTA, 150 mM NaCl, 0.5 % Nonidet P-40, 0.5 mM phenylmethylsulfonyl fluoride, and 0.5 mM dithiothreitol) for 30 min at 4 °C. The lysates were centrifuged at 14,000 × g for 30 min, and the supernatants were collected as whole blood cell extracts and tumor cell extracts, respectively, for pharmacodynamic analysis. […] The mean, standard deviation (SD), and standard error of the mean (SEM) were calculated for each experimental group, and statistical analyses were performed using standard two tailed Student’s t-test (significance defined as P ≤ 0.05).

[7] = test system: RPMI8226 xenografts; test: Anti-tumor activity of repeat dosing in RPMI8226 xenograft model; format: in vivo; settings: 5 mg/kg oral, the day after the first treatment, NOD.SCID mice
Method: as §4
(§5) 1 × 10^7 MM.1S tumor cells in 0.1 ml of Dulbecco’s Phosphate-Buffered Saline (1:1 matrigel) were implanted subcutaneously into the right flank of female athymic nude mice. Tumor growth was monitored with calipers and mice were divided into homogeneous cohorts according to their initial tumor volume. […] The compounds were formulated in 0.5 % methyl cellulose and administered at the indicated doses and regimens by oral gavage at a dose volume of 10 mL/kg. […] The mean, standard deviation (SD), and standard error of the mean (SEM) were calculated for each experimental group, and statistical analyses were performed using standard two tailed Student’s t-test (significance defined as P ≤ 0.05).

[8] = test system: MM.1S xenografts; test: MM.1S xenograft study of LC53-0151 with or without pomalidomide; format: in vivo, mice; settings: pomalidomide 2.5 mg/kg oral 5 days per week, 3 weeks; not statistically significant
Method: as §4
as §5, with “0.05). […]” for “0.05).”

Structure (SMILES): CC(C)C[C@H](NC(=O)[C@H](Cc1ccccc1)NC(=O)c1cnccn1)B(O)O [Bortezomib]
- Binding kinetics [1]: reversible

Structure (SMILES): CC(C)C[C@H](NC(=O)[C@H](CCc1ccccc1)NC(=O)CN1CCOCC1)C(=O)N[C@@H](Cc1ccccc1)C(=O)N[C@@H](CC(C)C)C(=O)[C@@]1(C)CO1 [Carfilzomib]
- Binding kinetics [1]: irreversible

Structure (SMILES): CC(C)C[C@H](NC(=O)CNC(=O)c1cc(Cl)ccc1Cl)B(O)O [Ixazomib]
- IC50 [2]: > 10000 nM
- IC50 [3]: 6 to 7 nM
- Binding kinetics [1]: reversible
- Viability at 12.5 nM [4]: did not show any effect on viability
- viability at 48 h, 10000 nM [5]: > 50%
- Tumor volume, % of start tumor volume (maximum regression) ([6]; day 8): 36%
- Tumor growth inhibition compared to vehicle control ([6]; day 15): 72%
- Tumor volume, % of start tumor volume ([6]; day 15): 58%
- Mortality in efficacy model [7]: all 8 mice died or were euthanized

Structure (SMILES): Nc1cccc2c1C(=O)N(C1CCC(=O)NC1=O)C2=O (stereo not drawn) [pomalidomide, Pomalidomide]
- Reduction of tumor volume compared to vehicle-treated mice [8]: 10%
